Assay [1] relates to B. napus DH12075 microspore culture. Briefly: sporophytic cell division in B. napus DH12075 microspore culture (DAPI staining). The class given is cell-based, Brassica napus. As to the method:
Brassica napus L. DH12075 was used as a donor plant for microspore embryo culture. The B. napus plant growth and microspore isolation procedures were performed as described in Custers, J. B. M. (2003) “Microspore culture in rapeseed (Brassica napus L.)” in Doubled haploid production in crop plants: a manual, M. Maluszynski, K. J. Kasha, B. P. Forster, and I. Szarejko, eds (Dordrecht: Kluwer Academic Publishers), pp. 185-193. Flower buds for microspore culture were grouped by size (measured from the tip of the flower bud to the bottom of the sepal), ranging from 3.0 to 3.5 mm for DH4079 and from 2.6 to 4.0 mm for DH12075. The microspores were isolated and cultured in NLN-13 medium (see Lichter, R. (1982) […]. For induction of embryogenesis, microspores were cultured in the dark at 33° C. for 20 hours and subsequently transferred to 25° C. Non-induced microspore cultures were cultured continuously at 25° C. or 18° C. Trichostatin A (TSA, Sigma-Aldrich) was prepared in DMSO. Freshly isolated microspores were inoculated in a medium containing TSA or the same volume of DMSO as a control and cultured for 20 hours at the temperature indicated for each experiment. After this period, the cultures were centrifuged at 200 g for 3 min, resuspended in fresh NLN-13 medium without TSA, and transferred to 25° C.
The developmental stage and identity of cells in microspore and anther culture were visualized with the nuclear stain 4′, 6-diamidino-2-phenylindole (DAPI, 1.25 μg/ml according to Custers (2003) supra using a Zeiss Axioskop epifluorescence microscope with a filter set no. 02. Approximately two hundred microspores or multicellular clusters were counted for each sample. GFP was imaged using confocal laser scanning microscopy (CLSM; Leica DM5500 Q). The GFP was excited with an argon laser line at 488 nm and detected with a 505-530 nm emission filter. Samples were counterstained with DAPI or propidium iodide (10 mg/ml; Sigma-Aldrich). Propidium iodide and red autofluorescence were excited at 532 nm and detected with a 620-660 nm emission filter. GFP and DAPI were covisualized with CLSM. For CLSM, DAPI was excited at 405 nm and detected with a 440-500 nm emission filter. The optical slices were median filtered with Leica LAS AF software. Arabidopsis anthers were cleared in HCG solution (water: Chloral hydrate: glycerol; 3:8:1) for 10 min, then observed under DIC microscopy with a Nikon OPTIPHOT microscope.
Cultured microspores and pollen of B. napus genotype DH12075 were treated with the HDAC inhibitor TSA. We examined the development of microspore cultures by staining heat-stressed (hereafter referred to as control) and heat-stressed plus TSA-treated immature male gametophytes at different developmental stages with the nuclear dye, DAPI. Initial dosage experiments were used to establish the minimal exposure time (20 h) in relation to the specific phenotypes discussed below.
The developmental fate of heat-stressed control cultures and cultures exposed to both heat-stress and TSA was followed by examining older cultures in more detail. […] Heat-stressed microspores and pollen were treated with a range of TSA concentrations, and the cultures examined after five and 15 days using DAPI staining to characterize the different multicellular structures that developed.

In assay [2] the test system is Capsicum annuum microspore cultures. Briefly: Capsicum annuum microspore culture, embryogenic microspores and embryos per bud. As to conditions: TSA during the first 20 hours. The format is cell-based. The method, then:
Microspore cultures were performed accordingto Kim M, Jang 1-C, Kim J-A, Park E-J, Yoon M, Lee Y (2008) “Embryogenesis and plant regeneration of hot pepper (Capsicum annuum L.) through isolated microspore culture”: Plant Cell Rep 27 (3):425-434. Flower buds containing vacuolate microspores were selected according to Parra-Vega V, Gonzalez-Garcia B, Segui-Simarro J M (2013) “Morphological markers to correlate bud and anther development with microsporogenesis and microgametogenesis in pepper (Capsicum annuum L.)”: Acta Physiol Plant 35 (2):627-633. Except for “Control” and “DMSO,” the microspores were exposed to TSA (diluted in DMSO) during the first 20 hours of culture.
Cultures were performed according to Kim M, Jang 1-C, Kim J-A, Park E-J, Yoon M, Lee Y (2008) “Embryogenesis and plant regeneration of hot pepper (Capsicum annuum L.) through isolated microspore culture”; Plant Cell Rep 27 (3):425-434. Flower buds containing […] microspores were selected according to Parra-Vega V, Gonzalez-Garcia B, Segui-Simarro JM (2013) “Morphological markers to correlate bud and anther development with microsporogenesis and microgametogenesis in pepper (Capsicum annuum L.)”: Acta Physiol Plant 35 (2):627-633. Except for “Control” and “DMSO,” the microspores were exposed to TSA (diluted in DMSO) during the first 20 hours of culture.

Assay [3] deals with histone H3 and H4. Briefly: Western blot of protein and histone acetylation in B. napus microspore cultures. The class given is cell-based, Brassica napus. As to the method:
Freshly isolated microspores and microspores cultured for 8 hours under different experimental conditions were harvested by centrifugation. Proteins were extracted by boiling in SDS-sample buffer (30 μl per ml of culture) and electrophoresed in a Midget 12.5% SDS-PAGE gel under reducing conditions. After transfer of the proteins to PVDF membrane and blocking with 5% milk powder in PBS, 0.1% Tween 20, the blots were incubated for 2 hours with primary antibody (1:2000 dilution). The primary antibodies used in this study are as follows: anti-acetyl-Lysine (ICP0380; ImmuneChem Pharmaceuticals), anti-Histone H3 (ab1791; Abcam), anti-Histone H4 (clone 62-141-13; Millipore), and anti-acetyl-Histone H3 and anti-acetyl-Histone H4 (Millipore). Secondary goat anti-rabbit-HRP antibody (Sigma) was used in a 1:2000 dilution, and signals were detected by using enhanced chemiluminescence (SuperSignal West Femto Chemiluminescent Substrate, Pierce). An acetylated lysine antibody was used in combination with protein gel blotting to identify proteins whose acetylation status changes in 8-hour heat-stress plus TSA-treated B. napus microspore cultures compared to heat-stressed control cultures. […] Panels show: (A)=Western blot of total acetylated proteins in microspore cultures treated for eight hours with DMSO (control) or TSA—proteins in the range of 10-25 kDa are differentially acetylated after TSA treatment compared to the control; (B)=Western blot of total and acetylated (Ac) histone H3 and H4 in microspore cultures treated for eight hours with DMSO (control) or TSA. The percentages of sporophytic divisions in the different cultures at day 5 are shown under each sample. […] The acetylation status of histones H3 and H4 was determined during microspore culture using acetylated histone H3 (Ac-H3) and H4 (Ac-H4) antibodies. Microspore cultures were started from buds containing mostly binucleate pollen and placed for eight hours at either 18° C. or 33° C. with or without 0.5 μM TSA. […] (FIG. 8B).

The structures appear in SMILES notation.

For `CC(/C=C/C(=O)NO)=C\[C@@H](C)C(=O)c1ccc(N(C)C)cc1` [TSA, trichostatin A], the “effect of duration of TSA treatment on proportion of sporophytic divisions” value in assay [1] (0.5 μM TSA, 33° C., treatment longer than 20 hours, counted after five days) is “did not further enhance or reduce”. Also, the “proportion of the population dividing sporophytically” value in assay [1] (heat stress plus 0.5 μM TSA, after two days of culture) was “up to 80%”. For the same compound, in assay [1] (heat stress plus 0.5 μM TSA, two days of culture), the “sporophytically-divided cells also containing one or more generative-like nuclei” value is “approximately 10%”. Moreover, the “Type IV (loose callus-like) structures” value in assay [1] (heat-stress and TSA, five-day-old cultures, control 0.5%) is “up to 32%”. In addition, the “Type II (compact callus-like) structures” value in assay [1] (heat-stress and TSA, five-day-old cultures, control 7%) is on record as “up to 77%”. Also, the “Type I classical embryogenic structures” value in assay [1] (heat-stress, 0.5 μM TSA, five days, control 0.5%) is “up to 1%”. For the same compound, the “Type I classical embryogenic structures, abundance” value in assay [1] (heat-stress, ten times lower concentration of TSA than 0.5 μM) is reported as “much more abundant”. Also, the “percentage of sporophytic divisions versus control at lower temperature” value in assay [1] (microspore cultures at 18 or 25° C.) is “increased percentage of sporophytic divisions”. Further, the “number of embryogenic cells compared to the control” value in assay [2] (10-day-old cultures) is “enhances”. In assay [2] (45-day-old cultures), the “embryo yield (embryos per bud) compared to the control” value is listed as “enhances”. The “total amount of histone H3 and H4” value in assay [3] (0.5 μM TSA, eight hours) was “no clear effect”. Moreover, the “sporophytic divisions compared to untreated controls” value in assay [3] (0.5 μM TSA, eight hours at 18° C. and 33° C., divisions at day 5) is recorded as “greatly enhanced”. For the same compound, in assay [3] (0.5 μM TSA, eight hours, 18° C. and 33° C.), the “level of histone H3 and H4 acetylation relative to control” value is on record as “increased dramatically”. Further, the “acetylation of small molecular weight proteins in the range of 10-25 kDa” value in assay [3] (8-hour heat-stress plus TSA versus heat-stressed control) is listed as “Increased protein acetylation”.
